Each structure is given as a SMILES string. Values after ≈ are worked out from the molar mass of the structure shown.

As a reminder, the MIC is the lowest concentration found to suppress growth. Broadly, the IC50 is the concentration that gives 50% inhibition.

The subject of one experiment is Aspergillus parasiticus. As to the kind of experiment: Antifungal activity against Aspergillus parasiticus NRRL 465 after 72 hrs by broth microdilution method. It counts as functional. Conditions: NRRL 465, 72 h. In general terms: Broth dilution looks for growth in wells or tubes with falling amounts of substance.
Another experiment concerns Fusarium solani. As to the kind of experiment: Antifungal activity against Fusarium solani NRRL-13414 after 72 hrs by broth microdilution method. It counts as functional. Conditions: NRRL-13414, 72 h.
Another experiment relates to Nakaseomyces glabratus. Put plainly: Antifungal activity against clinical isolate Candida glabrata after 48 hrs by broth microdilution method. It counts as functional.
A further experiment has as its system Candida albicans. Put plainly: Antifungal activity against Candida albicans ATCC-90028 after 48 hrs by broth microdilution method. It counts as functional. Particulars: ATCC-90028, 48 h.
Another experiment relates to Candida tropicalis. As to the kind of experiment: Antifungal activity against Candida tropicalis NRLL Y-12968 after 48 hrs by broth microdilution method. It counts as functional. Conditions: NRLL Y-12968, 48 h.
For a further experiment, the system named is Pichia kudriavzevii. As to the kind of experiment: Antifungal activity against Candida krusei NRLL Y-7179 after 48 hrs by broth microdilution method. It counts as functional. Conditions: NRLL Y-7179, 48 h.
Another experiment has as its system [Candida] zeylanoides. As to the kind of experiment: Antifungal activity against Candida zeylanoides NRLL Y-1774 after 48 hrs by broth microdilution method. Particulars: Dujonia zeylanoides, NRLL Y-1774, 48 h. It counts as functional.
In another experiment the test system is Candida parapsilosis. As to the kind of experiment: Antifungal activity against Candida parapsilosis NRLL Y-12696 after 48 hrs by broth microdilution method. It counts as functional. Particulars: Lodderomyces parapsilosis, NRLL Y-12696, 48 h.
For a further experiment, the system named is Aspergillus flavus. Put plainly: Antifungal activity against Aspergillus flavus NRRL-980 after 72 hrs by broth microdilution method. It counts as functional. Particulars: NRRL-980, 72 h.
The test system of another experiment is Aspergillus niger. As to the kind of experiment: Antifungal activity against Aspergillus niger ATCC-1094 after 72 hrs by broth microdilution method. Particulars: ATCC-1094, 72 h. It counts as functional.
Experiment [1] in a line: Cytotoxicity against mouse NIH/3T3 cells after 24 hrs by XTT assay. It counts as cell-based. Conditions: NIH3T3, 24 h. For orientation: Tetrazolium dyes change colour on reduction, which living cells bring about.
The next experiment concerns A549. As to the kind of experiment: Cytotoxicity against human A549 cells after 24 hrs by XTT assay. It counts as functional, cell-based. Particulars: A549, 24 h.

For the compound `Fc1cc(F)cc(/C=N/NC(=S)Nc2cccc3ccccc23)c1`, the MIC in the experiment on Aspergillus parasiticus, in the experiment with Fusarium solani, in the experiment with Nakaseomyces glabratus, in the experiment on Candida albicans, in the experiment with Candida tropicalis and with Pichia kudriavzevii was 250 µg/mL (≈ 732 µM) each time. Moreover, the MIC (in experiment [Candida] zeylanoides; in the experiment on Candida parapsilosis; with Aspergillus flavus; with Aspergillus niger) was 250 µg/mL (≈ 732 µM) in each case. Also, the concentration for half-maximal inhibition (IC50) was greater than 500 µg/mL in experiment [1] and 500 µg/mL (≈ 1460 µM) in the experiment with A549.
For the compound `Fc1ccc(/C=N/NC(=S)Nc2cccc3ccccc23)cc1F`, the MIC against Aspergillus parasiticus, against Fusarium solani, in the experiment with Nakaseomyces glabratus, in the experiment on Candida albicans, with Candida tropicalis and in the experiment on Pichia kudriavzevii was 250 µg/mL (≈ 732 µM) each time. Further, the MIC (in experiment [Candida] zeylanoides; in the experiment on Candida parapsilosis; with Aspergillus flavus; in the experiment with Aspergillus niger) was 250 µg/mL (≈ 732 µM) throughout. Also, the IC50 was greater than 500 µg/mL in [1] and 125 µg/mL (≈ 366 µM) in the experiment on A549.
With `Fc1ccc(Oc2ccc(/C=N/NC(=S)Nc3cccc4ccccc34)cc2)cc1`, the minimal inhibitory concentration (MIC) against Aspergillus parasiticus, in the experiment on Fusarium solani, against Nakaseomyces glabratus, against Candida albicans, with Candida tropicalis and in the experiment with Pichia kudriavzevii was 250 µg/mL (≈ 602 µM) throughout. The minimum inhibitory concentration (MIC) (in [Candida] zeylanoides; in the experiment on Candida parapsilosis; in the experiment on Aspergillus flavus; with Aspergillus niger) was 250 µg/mL (≈ 602 µM) in each case. Moreover, the IC50 in [1] was greater than 500 µg/mL; in the experiment on A549, 62.5 µg/mL (≈ 150 µM).
Turning to `Fc1ccc(/C=N/NC(=S)Nc2cccc3ccccc23)cc1Cl`, the MIC with Aspergillus parasiticus, in the experiment on Fusarium solani, with Nakaseomyces glabratus, in the experiment on Candida albicans, in the experiment with Candida tropicalis and with Pichia kudriavzevii was 250 µg/mL (≈ 699 µM) throughout. Besides, the minimal inhibitory concentration (MIC) (in experiment [Candida] zeylanoides; in the experiment with Candida parapsilosis; in the experiment with Aspergillus flavus; in the experiment on Aspergillus niger) was 250 µg/mL (≈ 699 µM) each time. Also, the figures for the 50% inhibitory concentration (IC50) (in experiment [1]; in the experiment on A549) were 500 µg/mL (≈ 1400 µM) and 51.3 µg/mL (≈ 143 µM), respectively.
For `Fc1cccc(F)c1/C=N/NC(=S)Nc1cccc2ccccc12`, the minimal inhibitory concentration (MIC) against Aspergillus parasiticus, with Fusarium solani, against Nakaseomyces glabratus, with Candida albicans, against Candida tropicalis and with Pichia kudriavzevii was 250 µg/mL (≈ 732 µM) throughout. Further, the minimal inhibitory concentration (MIC) (in [Candida] zeylanoides; against Candida parapsilosis; in the experiment with Aspergillus flavus; in the experiment on Aspergillus niger) was 250 µg/mL (≈ 732 µM) in each case. Moreover, the concentration for half-maximal inhibition (IC50) in experiment [1] was found to be 31.2 µg/mL (≈ 91.5 µM); in the experiment with A549, 500 µg/mL (≈ 1460 µM).
Take `Fc1cccc(Cl)c1/C=N/NC(=S)Nc1cccc2ccccc12`: the minimal inhibitory concentration (MIC) with Aspergillus parasiticus, against Fusarium solani, in the experiment with Nakaseomyces glabratus, against Candida albicans, in the experiment on Candida tropicalis and in the experiment on Pichia kudriavzevii was 250 µg/mL (≈ 699 µM) throughout. Besides, the minimum inhibitory concentration (MIC) (in experiment [Candida] zeylanoides; in the experiment on Candida parapsilosis; in the experiment with Aspergillus flavus; in the experiment with Aspergillus niger) was 250 µg/mL (≈ 699 µM) in each case. The concentration for half-maximal inhibition (IC50) in experiment [1] was greater than 500 µg/mL; in the experiment with A549, 125 µg/mL (≈ 349 µM).
For `CC(=O)N1CCN(c2ccc(OCC3COC(Cn4ccnc4)(c4ccc(Cl)cc4Cl)O3)cc2)CC1` (stereo unspecified) [KETOCONAZOLE], the MIC turned out to be 7.81 µg/mL (≈ 14.7 µM) with Aspergillus parasiticus; 62.5 µg/mL (≈ 118 µM) in the experiment with Fusarium solani; 62.5 µg/mL (≈ 118 µM) against Nakaseomyces glabratus; 62.5 µg/mL (≈ 118 µM) against Candida albicans; 125 µg/mL (≈ 235 µM) against Candida tropicalis; 125 µg/mL (≈ 235 µM) against Pichia kudriavzevii. Further, the minimum inhibitory concentration (MIC) was found to be 250 µg/mL (≈ 470 µM) in experiment [Candida] zeylanoides, 15.6 µg/mL (≈ 29.4 µM) against Candida parapsilosis, 15.6 µg/mL (≈ 29.4 µM) in the experiment with Aspergillus flavus and 31.2 µg/mL (≈ 58.8 µM) in the experiment on Aspergillus niger.
With `Fc1cc(F)c(/C=N/NC(=S)Nc2cccc3ccccc23)c(F)c1`, the minimum inhibitory concentration (MIC) in the experiment on Aspergillus parasiticus, against Fusarium solani, in the experiment with Nakaseomyces glabratus, against Candida albicans, in the experiment with Candida tropicalis and in the experiment with Pichia kudriavzevii was 250 µg/mL (≈ 696 µM) each time. For the same compound, the MIC (in experiment [Candida] zeylanoides; against Candida parapsilosis; with Aspergillus flavus; against Aspergillus niger) was 250 µg/mL (≈ 696 µM) throughout. The half-maximal inhibitory concentration (IC50) (in experiment [1]; in the experiment with A549) was greater than 500 µg/mL in each case.
With `Fc1ccc(/C=N/NC(=S)Nc2cccc3ccccc23)c(F)c1`, the MIC in the experiment on Aspergillus parasiticus, in the experiment on Fusarium solani, against Nakaseomyces glabratus, against Candida albicans, in the experiment with Candida tropicalis and against Pichia kudriavzevii was 250 µg/mL (≈ 732 µM) throughout. The MIC (in [Candida] zeylanoides; against Candida parapsilosis; against Aspergillus flavus; against Aspergillus niger) was 250 µg/mL (≈ 732 µM) each time. Further, the half-inhibitory concentration (IC50) is greater than 500 µg/mL in [1] and 31.2 µg/mL (≈ 91.5 µM) with A549.

Values taken from ChEMBL document CHEMBL3758081, “Synthesis and biological evaluation of new naphthalene substituted thiosemicarbazone derivatives as potent antifungal and anticancer agents” (Eur J Med Chem, 2016).
